Results from doi:10.1101/2023.10.03.560722, “Drug Discovery in Low Data Regimes: Leveraging a Computational Pipeline for the Discovery of Novel SARS-CoV-2 Nsp14-MTase Inhibitors” (bioRxiv, 2024).
Read-outs that look alike come from different tables or passages of the source.

What was measured:
Experiment in all cases: human MTase selectivity panel
Assay type in all cases: biochemical
[1] = biological target: SUV420H1 (Homo sapiens, UniProt Q4FZB7)
[2] = biological target: MLL1 (Homo sapiens, UniProt Q03164)
[3] = biological target: SUV39H2 (Homo sapiens, UniProt Q9H5I1)
Chain of SUV39H2 (Q9H5I1 whole entry): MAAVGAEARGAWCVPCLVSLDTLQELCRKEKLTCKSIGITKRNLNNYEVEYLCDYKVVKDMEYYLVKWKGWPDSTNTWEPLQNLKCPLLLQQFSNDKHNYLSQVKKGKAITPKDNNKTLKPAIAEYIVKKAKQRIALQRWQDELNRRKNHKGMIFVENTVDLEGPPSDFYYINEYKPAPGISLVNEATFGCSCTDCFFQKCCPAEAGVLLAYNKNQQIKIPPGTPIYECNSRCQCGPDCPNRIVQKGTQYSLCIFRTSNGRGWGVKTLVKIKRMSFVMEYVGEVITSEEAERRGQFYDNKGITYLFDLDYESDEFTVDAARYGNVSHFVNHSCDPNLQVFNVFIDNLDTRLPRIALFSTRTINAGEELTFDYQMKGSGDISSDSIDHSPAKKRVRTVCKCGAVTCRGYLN

[4] = biological target: SMYD2 (Homo sapiens, UniProt Q9NRG4)
Chain of SMYD2 (Q9NRG4 whole entry): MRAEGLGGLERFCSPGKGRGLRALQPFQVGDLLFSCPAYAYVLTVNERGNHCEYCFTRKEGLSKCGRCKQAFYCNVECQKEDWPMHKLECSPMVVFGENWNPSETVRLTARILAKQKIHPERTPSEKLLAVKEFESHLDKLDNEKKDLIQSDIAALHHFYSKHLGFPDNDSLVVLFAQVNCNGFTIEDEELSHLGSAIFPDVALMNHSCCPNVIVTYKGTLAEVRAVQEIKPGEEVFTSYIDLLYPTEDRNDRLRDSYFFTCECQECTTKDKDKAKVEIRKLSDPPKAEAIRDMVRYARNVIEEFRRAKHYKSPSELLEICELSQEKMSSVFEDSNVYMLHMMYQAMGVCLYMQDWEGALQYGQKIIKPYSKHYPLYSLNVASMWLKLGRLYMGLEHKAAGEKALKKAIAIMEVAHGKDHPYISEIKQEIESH

[5] = biological target: ASH1L (Homo sapiens, UniProt Q9NR48)
[6] = biological target: PRMT3 (Homo sapiens, UniProt O60678)
Chain of PRMT3 (O60678 whole entry): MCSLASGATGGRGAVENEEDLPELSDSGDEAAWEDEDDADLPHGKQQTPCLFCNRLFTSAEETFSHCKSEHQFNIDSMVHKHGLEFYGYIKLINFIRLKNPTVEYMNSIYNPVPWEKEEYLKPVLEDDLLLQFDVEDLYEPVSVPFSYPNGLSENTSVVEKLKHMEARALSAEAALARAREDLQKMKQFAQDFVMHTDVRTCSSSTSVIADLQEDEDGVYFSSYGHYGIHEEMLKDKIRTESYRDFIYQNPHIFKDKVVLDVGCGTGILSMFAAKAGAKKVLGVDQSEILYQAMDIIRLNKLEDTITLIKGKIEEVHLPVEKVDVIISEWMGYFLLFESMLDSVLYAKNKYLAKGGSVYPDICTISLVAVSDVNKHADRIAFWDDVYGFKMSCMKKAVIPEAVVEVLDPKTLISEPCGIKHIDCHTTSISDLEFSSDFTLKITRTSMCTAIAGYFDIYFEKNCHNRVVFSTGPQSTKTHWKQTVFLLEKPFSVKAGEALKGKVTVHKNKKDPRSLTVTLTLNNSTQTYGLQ

[7] = biological target: T1, PRMT9 (Homo sapiens, UniProt Q6P2P2)
T1 sequence (Q6P2P2 1-845): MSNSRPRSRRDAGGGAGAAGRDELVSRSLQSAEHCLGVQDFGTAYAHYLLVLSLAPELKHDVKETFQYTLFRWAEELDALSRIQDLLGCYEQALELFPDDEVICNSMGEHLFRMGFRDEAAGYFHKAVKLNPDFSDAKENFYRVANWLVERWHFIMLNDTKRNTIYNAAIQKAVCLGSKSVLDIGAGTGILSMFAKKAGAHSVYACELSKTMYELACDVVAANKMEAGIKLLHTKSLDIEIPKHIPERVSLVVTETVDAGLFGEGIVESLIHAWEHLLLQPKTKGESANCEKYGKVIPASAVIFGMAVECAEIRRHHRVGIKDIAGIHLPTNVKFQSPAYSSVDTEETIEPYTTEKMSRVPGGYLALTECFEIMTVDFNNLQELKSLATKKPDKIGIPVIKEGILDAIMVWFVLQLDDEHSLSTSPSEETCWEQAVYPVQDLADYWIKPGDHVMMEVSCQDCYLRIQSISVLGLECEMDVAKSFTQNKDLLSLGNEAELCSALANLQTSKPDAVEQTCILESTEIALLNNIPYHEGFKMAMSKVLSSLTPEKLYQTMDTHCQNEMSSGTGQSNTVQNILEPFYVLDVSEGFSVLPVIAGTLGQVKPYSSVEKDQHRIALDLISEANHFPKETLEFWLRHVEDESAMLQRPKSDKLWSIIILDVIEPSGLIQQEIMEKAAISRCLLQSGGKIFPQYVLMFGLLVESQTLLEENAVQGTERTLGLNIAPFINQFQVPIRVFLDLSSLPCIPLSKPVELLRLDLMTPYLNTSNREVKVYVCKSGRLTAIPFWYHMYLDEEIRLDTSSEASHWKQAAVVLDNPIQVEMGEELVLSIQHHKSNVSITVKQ

[8] = biological target: NSD1 (Homo sapiens, UniProt Q96L73)
Chain of NSD1 (Q96L73 whole entry): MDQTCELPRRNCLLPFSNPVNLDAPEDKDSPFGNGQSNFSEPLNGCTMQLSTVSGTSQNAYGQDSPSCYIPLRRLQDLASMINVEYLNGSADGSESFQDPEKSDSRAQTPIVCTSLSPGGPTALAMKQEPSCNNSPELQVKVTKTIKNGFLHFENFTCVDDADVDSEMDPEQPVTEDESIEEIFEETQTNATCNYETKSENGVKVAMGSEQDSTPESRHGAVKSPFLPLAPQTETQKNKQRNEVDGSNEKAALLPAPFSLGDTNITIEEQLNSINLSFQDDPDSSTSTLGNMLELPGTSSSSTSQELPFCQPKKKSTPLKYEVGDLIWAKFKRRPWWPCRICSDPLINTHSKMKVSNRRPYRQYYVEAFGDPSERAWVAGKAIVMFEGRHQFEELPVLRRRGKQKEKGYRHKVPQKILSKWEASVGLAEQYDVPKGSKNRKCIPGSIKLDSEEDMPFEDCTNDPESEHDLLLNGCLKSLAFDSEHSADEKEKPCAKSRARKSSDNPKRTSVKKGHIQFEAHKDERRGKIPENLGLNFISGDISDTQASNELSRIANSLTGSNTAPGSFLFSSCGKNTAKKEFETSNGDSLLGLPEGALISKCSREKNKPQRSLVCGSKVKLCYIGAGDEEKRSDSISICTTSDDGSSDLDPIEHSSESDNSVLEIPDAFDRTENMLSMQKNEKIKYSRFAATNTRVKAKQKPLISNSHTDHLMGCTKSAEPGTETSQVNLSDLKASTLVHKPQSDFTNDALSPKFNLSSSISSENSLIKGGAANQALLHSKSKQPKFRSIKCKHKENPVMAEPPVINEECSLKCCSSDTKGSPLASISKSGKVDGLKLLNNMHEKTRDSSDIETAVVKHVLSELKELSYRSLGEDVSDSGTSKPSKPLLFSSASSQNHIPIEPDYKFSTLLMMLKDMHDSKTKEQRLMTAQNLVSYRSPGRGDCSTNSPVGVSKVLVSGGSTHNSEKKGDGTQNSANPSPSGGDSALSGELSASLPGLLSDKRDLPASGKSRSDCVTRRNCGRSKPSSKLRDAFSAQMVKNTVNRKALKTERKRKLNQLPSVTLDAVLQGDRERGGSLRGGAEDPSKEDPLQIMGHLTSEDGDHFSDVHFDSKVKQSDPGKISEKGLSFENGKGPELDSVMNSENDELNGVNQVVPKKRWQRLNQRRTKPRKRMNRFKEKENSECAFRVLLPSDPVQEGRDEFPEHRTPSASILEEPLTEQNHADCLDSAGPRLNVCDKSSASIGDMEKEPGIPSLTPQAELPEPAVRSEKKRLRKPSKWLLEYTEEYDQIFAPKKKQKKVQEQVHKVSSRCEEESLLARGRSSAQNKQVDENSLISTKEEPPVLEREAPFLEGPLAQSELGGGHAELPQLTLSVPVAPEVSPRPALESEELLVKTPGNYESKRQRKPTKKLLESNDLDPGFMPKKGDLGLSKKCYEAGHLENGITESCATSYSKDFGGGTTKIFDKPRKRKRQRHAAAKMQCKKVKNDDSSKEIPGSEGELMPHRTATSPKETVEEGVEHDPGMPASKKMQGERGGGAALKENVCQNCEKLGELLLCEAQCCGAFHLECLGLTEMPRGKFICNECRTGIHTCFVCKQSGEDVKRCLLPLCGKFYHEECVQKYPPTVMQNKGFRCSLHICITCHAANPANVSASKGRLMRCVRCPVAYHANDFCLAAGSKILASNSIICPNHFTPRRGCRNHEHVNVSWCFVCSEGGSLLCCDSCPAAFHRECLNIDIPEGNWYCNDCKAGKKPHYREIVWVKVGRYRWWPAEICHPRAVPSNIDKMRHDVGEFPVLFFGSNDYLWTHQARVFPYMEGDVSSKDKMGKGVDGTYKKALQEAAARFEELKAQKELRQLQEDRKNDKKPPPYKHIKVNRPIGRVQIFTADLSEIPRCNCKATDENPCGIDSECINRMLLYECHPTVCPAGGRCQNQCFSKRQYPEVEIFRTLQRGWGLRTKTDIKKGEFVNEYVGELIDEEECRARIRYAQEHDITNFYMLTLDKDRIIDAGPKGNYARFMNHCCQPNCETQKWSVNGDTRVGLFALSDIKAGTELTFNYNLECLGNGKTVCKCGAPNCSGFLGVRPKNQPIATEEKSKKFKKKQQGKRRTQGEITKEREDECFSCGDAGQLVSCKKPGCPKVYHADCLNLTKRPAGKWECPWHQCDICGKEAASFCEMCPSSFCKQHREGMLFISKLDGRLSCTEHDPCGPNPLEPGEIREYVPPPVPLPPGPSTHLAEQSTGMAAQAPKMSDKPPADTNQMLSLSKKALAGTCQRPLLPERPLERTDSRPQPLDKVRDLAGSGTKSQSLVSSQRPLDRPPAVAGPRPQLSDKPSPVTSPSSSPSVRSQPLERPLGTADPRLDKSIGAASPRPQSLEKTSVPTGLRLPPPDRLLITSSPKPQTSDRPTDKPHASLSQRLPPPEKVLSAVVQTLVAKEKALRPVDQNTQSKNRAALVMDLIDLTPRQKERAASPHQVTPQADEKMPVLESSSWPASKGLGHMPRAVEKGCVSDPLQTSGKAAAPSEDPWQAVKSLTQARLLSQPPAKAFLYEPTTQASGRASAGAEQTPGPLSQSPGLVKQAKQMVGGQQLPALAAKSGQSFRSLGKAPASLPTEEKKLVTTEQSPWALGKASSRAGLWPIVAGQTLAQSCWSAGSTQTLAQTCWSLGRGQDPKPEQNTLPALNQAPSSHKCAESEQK

[9] = biological target: T2, GLP (Homo sapiens, UniProt Q9H9B1)
T2 sequence (Q9H9B1 1-1298): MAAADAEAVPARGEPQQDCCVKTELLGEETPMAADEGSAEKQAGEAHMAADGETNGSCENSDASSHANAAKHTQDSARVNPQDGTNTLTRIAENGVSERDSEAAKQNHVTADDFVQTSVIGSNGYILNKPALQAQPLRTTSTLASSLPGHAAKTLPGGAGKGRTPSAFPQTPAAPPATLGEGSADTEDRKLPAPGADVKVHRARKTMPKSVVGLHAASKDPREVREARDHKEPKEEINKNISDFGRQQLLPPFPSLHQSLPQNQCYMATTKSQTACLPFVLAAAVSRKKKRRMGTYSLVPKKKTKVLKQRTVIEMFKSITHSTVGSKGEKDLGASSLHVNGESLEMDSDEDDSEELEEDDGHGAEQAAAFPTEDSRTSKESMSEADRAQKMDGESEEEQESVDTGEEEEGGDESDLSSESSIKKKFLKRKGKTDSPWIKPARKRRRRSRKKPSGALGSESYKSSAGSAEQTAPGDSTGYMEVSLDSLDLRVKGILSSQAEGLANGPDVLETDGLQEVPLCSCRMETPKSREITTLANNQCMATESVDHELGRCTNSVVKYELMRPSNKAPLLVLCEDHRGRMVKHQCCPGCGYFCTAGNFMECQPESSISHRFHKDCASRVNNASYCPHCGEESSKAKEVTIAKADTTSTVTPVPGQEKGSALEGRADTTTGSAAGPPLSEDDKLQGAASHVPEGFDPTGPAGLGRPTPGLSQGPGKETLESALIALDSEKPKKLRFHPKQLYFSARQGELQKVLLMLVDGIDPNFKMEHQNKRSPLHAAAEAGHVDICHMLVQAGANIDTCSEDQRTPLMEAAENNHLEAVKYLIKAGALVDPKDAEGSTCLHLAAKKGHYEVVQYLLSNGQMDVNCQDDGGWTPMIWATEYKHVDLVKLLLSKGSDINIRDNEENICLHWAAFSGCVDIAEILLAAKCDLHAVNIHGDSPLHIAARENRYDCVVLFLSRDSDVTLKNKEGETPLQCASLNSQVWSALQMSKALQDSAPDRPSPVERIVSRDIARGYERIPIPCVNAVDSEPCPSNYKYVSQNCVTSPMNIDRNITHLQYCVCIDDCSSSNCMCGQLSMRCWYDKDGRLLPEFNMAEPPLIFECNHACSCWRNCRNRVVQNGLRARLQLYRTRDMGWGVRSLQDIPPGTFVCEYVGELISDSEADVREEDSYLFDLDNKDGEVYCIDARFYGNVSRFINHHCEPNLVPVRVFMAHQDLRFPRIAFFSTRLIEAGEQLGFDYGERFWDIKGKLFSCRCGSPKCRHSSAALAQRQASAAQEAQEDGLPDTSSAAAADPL

[10] = average ± SD, read-out: Activity (%) at 10 µM Average
[11] = read-out: Activity (%) at 10 µM Replicate 1
[12] = read-out: Activity (%) at 10 µM Replicate 2
[13] = read-out: Activity (%) at 10 µM Replicate 3

Chain of SUV420H1 (Q4FZB7 whole entry): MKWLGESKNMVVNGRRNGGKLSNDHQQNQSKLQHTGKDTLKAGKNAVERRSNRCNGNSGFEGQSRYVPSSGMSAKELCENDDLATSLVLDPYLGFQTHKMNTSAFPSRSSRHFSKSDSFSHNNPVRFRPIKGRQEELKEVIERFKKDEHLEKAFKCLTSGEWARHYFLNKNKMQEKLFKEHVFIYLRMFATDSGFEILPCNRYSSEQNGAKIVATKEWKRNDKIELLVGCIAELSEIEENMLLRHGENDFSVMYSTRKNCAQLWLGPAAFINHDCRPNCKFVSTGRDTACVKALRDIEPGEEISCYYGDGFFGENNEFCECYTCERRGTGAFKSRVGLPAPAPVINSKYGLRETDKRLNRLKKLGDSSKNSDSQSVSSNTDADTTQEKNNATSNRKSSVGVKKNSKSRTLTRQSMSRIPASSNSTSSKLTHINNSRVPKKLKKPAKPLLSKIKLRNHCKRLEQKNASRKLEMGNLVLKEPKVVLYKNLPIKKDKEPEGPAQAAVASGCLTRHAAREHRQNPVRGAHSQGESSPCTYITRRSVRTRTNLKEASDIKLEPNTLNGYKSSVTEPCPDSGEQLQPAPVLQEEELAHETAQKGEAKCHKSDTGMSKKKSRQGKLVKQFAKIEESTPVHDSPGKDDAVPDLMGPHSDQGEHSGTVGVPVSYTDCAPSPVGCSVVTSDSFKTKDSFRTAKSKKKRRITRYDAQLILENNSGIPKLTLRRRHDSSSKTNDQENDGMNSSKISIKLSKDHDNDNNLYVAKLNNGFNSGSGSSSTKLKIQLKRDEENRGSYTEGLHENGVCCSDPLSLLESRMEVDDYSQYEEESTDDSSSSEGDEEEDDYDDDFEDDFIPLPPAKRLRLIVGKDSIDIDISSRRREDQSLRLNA

## Nc1ncnc2c1ncn2[C@@H]1O[C@H](CSCc2ccc(Cl)cc2)[C@@H](O)[C@H]1O [NSC620333]
[1]; [10]
  activity at 10 µM: 93 ± 8%
[1]; [11]
  activity at 10 µM: 84%
[1]; [12]
  activity at 10 µM: 97%
[1]; [13]
  activity at 10 µM: 98%
[2]; [10]
  activity at 10 µM: 85 ± 2%
[2]; [11]
  activity at 10 µM: 84%
[2]; [12]
  activity at 10 µM: 87%
[2]; [13]
  activity at 10 µM: 84%
[3]; [10]
  activity at 10 µM: 103 ± 7%
[3]; [11]
  activity at 10 µM: 108%
[3]; [12]
  activity at 10 µM: 96%
[3]; [13]
  activity at 10 µM: 106%
[4]; [10]
  activity at 10 µM: 105 ± 8%
[4]; [11]
  activity at 10 µM: 104%
[4]; [12]
  activity at 10 µM: 114%
[4]; [13]
  activity at 10 µM: 99%
[5]; [10]
  activity at 10 µM: 105 ± 8%
[5]; [11]
  activity at 10 µM: 113%
[5]; [12]
  activity at 10 µM: 97%
[5]; [13]
  activity at 10 µM: 104%
[6]; [10]
  activity at 10 µM: 79 ± 5%
[6]; [11]
  activity at 10 µM: 75%
[6]; [12]
  activity at 10 µM: 78%
[6]; [13]
  activity at 10 µM: 85%
[7]; [10]
  activity at 10 µM: 117 ± 3%
[7]; [11]
  activity at 10 µM: 118%
[7]; [12]
  activity at 10 µM: 118%
[7]; [13]
  activity at 10 µM: 113%
[8]; [10]
  activity at 10 µM: 104 ± 2%
[8]; [11]
  activity at 10 µM: 103%
[8]; [12]
  activity at 10 µM: 102%
[8]; [13]
  activity at 10 µM: 107%
[9]; [10]
  activity at 10 µM: 100 ± 5%
[9]; [11]
  activity at 10 µM: 95%
[9]; [12]
  activity at 10 µM: 105%
[9]; [13]
  activity at 10 µM: 101%
